Ends that are not written are not given here.
How the values were obtained:
[1] = target: T1, gamma interferon receptors on Daudi cells (Homo sapiens, UniProt P15260); assay: Inhibition of the binding of 125I-recombinant human gamma interferon to Daudi cells (radioligand-receptor assay); conditions: for inhibition of the binding of the labeled interferon (in words; type of inhibition): FIGS. 1-4; for Ki: specific binding of 125I-recombinant human gamma interferon to Daudi cells, 2 hours at 4° C., Cheng et al. method
T1 construct: host or cells: Daudi cells (human B lymphoblast, Burkitt lymphoma)
T1 sequence (P15260 18-489): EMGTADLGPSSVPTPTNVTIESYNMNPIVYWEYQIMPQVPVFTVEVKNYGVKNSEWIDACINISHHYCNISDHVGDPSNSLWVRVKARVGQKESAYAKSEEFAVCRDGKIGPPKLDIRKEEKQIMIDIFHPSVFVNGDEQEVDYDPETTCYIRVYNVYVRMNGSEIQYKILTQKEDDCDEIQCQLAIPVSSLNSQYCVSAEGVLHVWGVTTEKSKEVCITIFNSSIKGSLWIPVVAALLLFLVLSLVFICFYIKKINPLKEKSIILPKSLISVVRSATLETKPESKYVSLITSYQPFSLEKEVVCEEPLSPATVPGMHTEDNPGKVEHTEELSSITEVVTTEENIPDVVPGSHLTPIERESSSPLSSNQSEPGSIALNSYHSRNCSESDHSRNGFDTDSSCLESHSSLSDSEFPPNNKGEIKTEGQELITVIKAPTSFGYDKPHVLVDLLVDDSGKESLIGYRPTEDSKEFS
Experimental: The receptor assay employed a standard mixture of 6×10^5 Daudi cells in 1 ml of binding medium (RPMI 1640 medium, 10% fetal bovine serum, 0.02% sodium azide) containing 200,000 cpm of the labeled interferon. Controls additionally contained 1 μg of unlabeled interferon to determine nonspecific binding. Assays were carried out by adding 0.1 ml aliquots of binding medium with or without varying amounts of a potentially inhibitory polypeptide or protein to the standard mixtures, and incubating the combined mixtures for 2 hours at 4° C.
Following the incubation, the cells were pelleted by centrifugation at 13,000× g for 30 seconds at 4° C, and the supernatants were discarded. The cells were resuspended in 0.2 ml of fresh binding medium without labeled interferon at 4° C., after which the cells were centrifuged at 13,000× g for 2 minutes through a layer of dibutyl phthalate and dioctyl phthalate [0.2 ml of a 1:1 (vol/vol) mixture] to remove residual labeled interferon that was not specifically bound. Inhibition constants (Ki) were calculated according to the method of Cheng et al. [Biochem. Pharmacol. 22:3099 (1973)], in which [formula] where [L] is the ligand concentration and IC50 is the concentration of inhibitor required to decrease binding by 50%.

[2] = test system: antiviral effects of recombinant human gamma interferon D; assay: Inhibition of antiviral effects of recombinant human gamma interferon D on human diploid foreskin cells challenged with encephalomyocarditis virus (CPE scoring); format: cell-based
Experimental: Control Medium A, various dilutions in Medium A of recombinant human gamma Interferon D in the presence of a fixed concentration of polypeptide No. I, or various dilutions of Medium A of polypeptide No. III in the presence of a fixed concentration of the interferon were pipetted in 0.1 ml total volumes into the wells of 96-well flat bottom microtiter plates.
Aliquots of a suspension of human diploid foreskin cells (0.1 ml, 3.5×10^5 cells/ml) in Medium A were pipetted into the wells of the microtiter plates, and the plates were incubated for 4 hours in a 37° C., 5% CO2 incubator. […]
A 0.025-0.05 aliquot of a solution of crystal violet stain (Sigma Chemical Co., St. Louis, Mo.; 0.485% in an aqueous solution containing 3.2% formaldehyde and 32.3% 95% ethanol) was added to each well, and the plates were allowed to stand for 30 minutes for color development. The stain solution was removed and the wells were washed at least three times with distilled water, after which the plates were scored for CPE with the aid of a fluorescent light viewer.
CPE was graded semi-quantitatively on a scale of 0 to 4, with grade O CPE corresponding to a complete absence of cell lysis as measured by cell staining with crystal violet and grade 4 CPE corresponding to total cell lysis and lack of staining.

[3] = test system: murine encephalomyocarditis virus; assay: Antiviral activity assay, human diploid foreskin cells infected with murine encephalomyocarditis virus (Rubinstein et al.); format: cell-based
Excerpt: It also is a potent inducer of the maturational differentiation of pro-monocytes to premacrophages. […] 37:755 (1981)]. […] 132:240 (1984)].

“AKKLSKDRMKKYMARRKWQKTGHAV [Polypeptide I]” was tested, and the “Kd of labeled interferon in the presence of polypeptide (Scatchard analysis)” value ([1]; 5 μM polypeptide, Daudi cells) was “marked increase”.

poly(D-lysine) was tested, and the “inhibition of the binding of the labeled interferon (in words; type of inhibition)” value ([1]; Daudi cells) was “strong competitive inhibitors” and the Ki [1] was 190 nM.

With poly(L-glutamic acid) the Ki [1] was 290 nM.

For poly(L-lysine), the “inhibition of the binding of the labeled interferon (in words; type of inhibition)” value ([1]; Daudi cells) was “strong competitive inhibitors” and the Ki [1] was 11000 nM.

protamine sulfate was tested, and the Ki [1] was 1100 nM.

B1: Recombinant human gamma interferon D: recombinant human gamma interferon D prepared from transformed E. coli, stimulus in antiviral and HLA-DR assays (protein, UniProt P01579 24-161, looked up)
Interferon gamma: QDPYVKEAENLKKYFNAGHSDVADNGTLFLGILKNWKEESDRKIMQSQIVSFYFKLFKNFKDDQSIQKSVETIKEDMNVKFFNSNKKKRDDFEKLTNYSVTDLNVQRKAIHELIQVMAELSPAAKTGKRKRSQMLFRG
modifications: E. coli recombinant
notes: recombinant human gamma interferon D prepared from transformed E. coli, stimulus in antiviral and HLA-DR assays
B1 was tested, and the CPE grade ([2]; interferon alone, 30 pM, scale 0 to 4) was 2, the “cell protection / CPE” value ([2]; interferon alone, 1,200 pM) was “complete cell protection” and the antiviral specific activity [3] was “about 4×10^6 units/mg”.

From patent US5632988A, “Polypeptide inhibitors of gamma interferon” (Schering Corporation, priority 1992, dated 1997)
